The values that follow come from publication PMC2707616, “Platensimycin Activity against Mycobacterial β-Ketoacyl-ACP Synthases” (PLoS ONE, 2009).

In general, pIC50 refers to the negative decadic logarithm of the IC50, by convention in mol/L.

The structures appear in SMILES notation. pIC50: −log10 of the molar value. Values after ≈ are worked out from the molar mass of the structure shown. Like-named read-outs stand apart in the source and are kept apart here. A value given as a limit tells only on which side of the number the result lay.

One data set deals with KasA. As to conditions: cited from earlier work.
For a further data set, the system named is KasB. Particulars: KasB ref 25; cited from earlier work.
The subject of the next data set is S. aureus FabH. Also noted: method as in PMID 17456595. As to conditions: S. aureus FabH ref 2; cited from earlier work.
For a further data set, the system named is M. tuberculosis CDC1551. Nature of the data set: microbe, parasite or virus in culture. In kind it is cell-based. Particulars: Mycobacterium tuberculosis; M. tuberculosis CDC1551, solid medium.
The subject of another data set is M. tuberculosis H37Rv. Nature of the data set: microbe, parasite or virus in culture. In kind it is cell-based. As to conditions: Mycobacterium tuberculosis, solid medium.
Data set [1] concerns M. smegmatis mc^2155. Nature of the data set: MIC99 by Alamar Blue testing, liquid medium. In kind it is cell-based, Mycobacterium smegmatis. Particulars: Mycolicibacterium smegmatis.
A further data set relates to M. smegmatis pVV16. Nature of the data set: MIC99 by Alamar Blue testing, vector control strain. In kind it is cell-based, Mycobacterium smegmatis. As to conditions: Mycolicibacterium smegmatis. For orientation: The colour change of resazurin is a common sign of viable cells or microbes.
A further data set deals with M. smegmatis pVV16- KasA. Briefly: microbe, parasite or virus in culture. In kind it is cell-based, Mycobacterium smegmatis.
In another data set the test system is M. smegmatis pVV16- KasB. Briefly: microbe, parasite or virus in culture. In kind it is cell-based, Mycobacterium smegmatis.
Data set [2] deals with M. smegmatis pVV16- KasAB. Briefly: microbe, parasite or virus in culture. The class given is cell-based, Mycobacterium smegmatis. As to conditions: Mycolicibacterium smegmatis, PVV16KASAB.
A further data set has as its system M. smegmatis pVV16- FabH. Briefly: microbe, parasite or virus in culture. The class given is cell-based, Mycobacterium smegmatis. As to conditions: Mycolicibacterium smegmatis, PVV16FABH.
In another data set the test system is M. bovis BCG. Briefly: microbe, parasite or virus in culture. The class given is cell-based.
The test system of the next data set is M. bovis BCG pVV16. Briefly: microbe, parasite or virus in culture. Particulars: Mycobacterium tuberculosis variant bovis BCG. In kind it is cell-based.
The subject of another data set is M. bovis BCG pVV16- KasA. Briefly: microbe, parasite or virus in culture. The class given is cell-based. Particulars: Mycobacterium tuberculosis variant bovis BCG.
A further data set deals with M. bovis BCG pVV16- KasB. Briefly: microbe, parasite or virus in culture. The class given is cell-based. As to conditions: Mycobacterium tuberculosis variant bovis BCG.
The test system of another data set is M. bovis BCGΔ KasB. The class given is cell-based, Mycobacterium bovis BCG.
The target of another data set is T1, Mt-KasA (Mycobacterium tuberculosis, UniProt P9WQD9).
T1 construct: made in house
Briefly: biochemical.

A further data set concerns the target T2, Mt-KasB (Mycobacterium tuberculosis, UniProt P9WQD7).
T2 construct: made in house
Briefly: biochemical.

A further data set concerns the target T3, Mt-FabH (Mycobacterium tuberculosis, UniProt P9WNG3).
T3 construct: made in house
Briefly: biochemical.

The test system of another data set is Cg-FAS-I. Nature of the data set: FAS-I activity in crude cell free extracts. The class given is biochemical, C. glutamicum. Particulars: crude cell free extract, standard error in brackets. Here is the method:
FAS-I extracts from M. smegmatis and C. glutamicum were prepared as described previously. FAS-I experiments were conducted as described using the 40–80% ammonium sulfate fraction. Briefly, platensimycin was titred (0.1–150 µg/ml) into the standard reaction as follows: 100 mM potassium phosphate pH 7.0, 5 mM EDTA, 5 mM dithiothreitol, 300 µM acetyl-CoA, 100 µM NADPH, 100 µM NADH, 1 µM flavin mononucleotide, 500 µM α-cyclodextrin, 20 µM malonyl-CoA, 100,000 cpm of [2-^14C] malonyl-CoA, and 100 µl of the cytosolic enzyme preparation (1 mg of protein) in a total volume of 500 µl. Reactions were performed in triplicate at 37°C for 1 h and terminated by the addition of 500 µl of 20% potassium hydroxide in 50% methanol at 100°C for 30 min. Following acidification with 300 µl of 6 M HCl, the resultant [^14C]-labelled fatty acids were extracted three times with petroleum ether. The organic extracts were pooled, washed once with an equal volume of water, and dried in a scintillation vial prior to scintillation counting using 5 ml of EcoScintA (National Diagnostics, Hull, U.K.).

The next data set has as its system M. smegmatis. Nature of the data set: Growth and viable count (CFU) of cultures over 72 h, revival after washing. In kind it is cell-based, Mycobacterium smegmatis.
The test system of data set [3] is M. smegmatis mc^2155. The class given is cell-based, Mycobacterium smegmatis.
A further data set concerns C. glutamicum. Briefly: Growth of cultures. The class given is cell-based. As to conditions: data not shown.
In another data set the test system is Candida albicans. Also noted: method as in PMID 16710421. As to conditions: cited from earlier work.
In the next data set the test system is human FAS-I. Set-up: method as in earlier work. As to conditions: cited from earlier work.
The test system of another data set is rat FAS-I. Set-up: method as in earlier work. Particulars: cited from earlier work.
The test system of another data set is HeLa. Particulars: mammalian cell toxicity ref 3; cited from earlier work.

T3 sequence (P9WNG3 whole entry): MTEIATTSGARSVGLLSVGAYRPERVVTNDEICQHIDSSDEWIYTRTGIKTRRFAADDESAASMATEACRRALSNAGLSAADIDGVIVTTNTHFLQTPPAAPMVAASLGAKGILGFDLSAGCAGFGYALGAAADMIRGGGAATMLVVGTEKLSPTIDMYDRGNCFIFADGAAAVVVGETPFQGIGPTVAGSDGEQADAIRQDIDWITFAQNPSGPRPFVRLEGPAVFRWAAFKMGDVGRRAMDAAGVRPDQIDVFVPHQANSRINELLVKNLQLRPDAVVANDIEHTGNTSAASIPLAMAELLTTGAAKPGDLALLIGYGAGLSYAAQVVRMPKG
T1 sequence (P9WQD9 whole entry): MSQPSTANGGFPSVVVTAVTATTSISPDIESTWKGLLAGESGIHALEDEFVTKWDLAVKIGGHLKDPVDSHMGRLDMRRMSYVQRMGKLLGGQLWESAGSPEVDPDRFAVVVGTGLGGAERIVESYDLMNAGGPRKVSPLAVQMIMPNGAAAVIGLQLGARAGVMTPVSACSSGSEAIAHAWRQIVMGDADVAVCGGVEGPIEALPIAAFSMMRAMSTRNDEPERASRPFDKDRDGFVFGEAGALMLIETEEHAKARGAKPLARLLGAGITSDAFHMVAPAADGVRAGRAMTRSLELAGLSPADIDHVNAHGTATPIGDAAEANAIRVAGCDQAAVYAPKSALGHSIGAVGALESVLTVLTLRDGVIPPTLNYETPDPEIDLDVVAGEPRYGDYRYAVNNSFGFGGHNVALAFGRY
T2 sequence (P9WQD7 whole entry): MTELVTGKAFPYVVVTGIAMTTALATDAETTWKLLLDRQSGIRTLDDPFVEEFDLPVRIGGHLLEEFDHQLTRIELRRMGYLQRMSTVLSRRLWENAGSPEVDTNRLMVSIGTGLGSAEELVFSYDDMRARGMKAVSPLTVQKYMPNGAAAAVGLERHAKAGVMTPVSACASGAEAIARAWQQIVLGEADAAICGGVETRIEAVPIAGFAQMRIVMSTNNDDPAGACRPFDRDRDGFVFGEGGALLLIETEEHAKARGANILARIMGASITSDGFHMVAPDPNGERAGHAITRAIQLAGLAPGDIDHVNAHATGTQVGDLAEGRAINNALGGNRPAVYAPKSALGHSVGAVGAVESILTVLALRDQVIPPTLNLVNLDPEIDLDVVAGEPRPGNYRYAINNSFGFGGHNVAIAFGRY

Regarding `C=C/C(C)=C/[C@@]1(C)SC(=O)C(C)=C1O` [TLM, thiolactomycin], the figures for the pIC50 with KasA and with KasB were 4.70 and 4.05, respectively.

`C=C1C[C@@]23C=CC(=O)[C@@](C)(CCC(=O)Nc4c(O)ccc(C(=O)O)c4O)[C@@H]2C[C@@H]1CC3` [platencin]: the pIC50 with S. aureus FabH was 5.04.

Take `CC12C[C@@]34C=CC(=O)[C@@](C)(CCC(=O)Nc5c(O)ccc(C(=O)O)c5O)C3[C@H](CC1C4)O2` (stereo partly drawn) [platensimycin]: the MIC99 in the data set with M. tuberculosis CDC1551 was 12 µg/mL (≈ 27.2 µM); with M. tuberculosis H37Rv, 12 µg/mL (≈ 27.2 µM); with M. smegmatis mc^2155 [1], 14 µg/mL (≈ 31.7 µM); in the data set on M. smegmatis pVV16 it was 14 µg/mL (≈ 31.7 µM); in the data set with M. smegmatis pVV16- KasA (Mycolicibacterium smegmatis, PVV16KASA, M. smegmatis pVV16- KasA), 30 µg/mL (≈ 68 µM); in the data set on M. smegmatis pVV16- KasB (Mycolicibacterium smegmatis, PVV16KASB, M. smegmatis pVV16- KasB), 124 µg/mL (≈ 281 µM). The MIC99 in [2] is 126 µg/mL (≈ 285 µM); against M. smegmatis pVV16- FabH it was 16 µg/mL (≈ 36.2 µM); against M. bovis BCG, >128 µg/mL; with M. bovis BCG (Mycobacterium tuberculosis variant bovis BCG, read-out: MIC99) it was > 128 µg/mL; with M. bovis BCG pVV16, > 128 µg/mL; in the data set on M. bovis BCG pVV16- KasA it was > 128 µg/mL. Besides, the MIC99 in the data set on M. bovis BCG pVV16- KasB was > 128 µg/mL; in the data set on M. bovis BCGΔ KasB, 61 µg/mL (≈ 138 µM). The “increase in resistance (MIC) on Mt-KasA overexpression” value in the data set on M. smegmatis pVV16- KasA (MIC from 14 to 30 µg/ml) was 2 fold. Also, the “increase in the MIC on Mt-KasB overexpression” value in the data set on M. smegmatis pVV16- KasB (MIC to 124 µg/ml) was 9 fold. For the same compound, the negative logarithm of the IC50 (pIC50) was 5.34 at Mt-KasA; 5.34 against Mt-KasA (standard error in brackets); 5.02 on Mt-KasB; 5.02 against Mt-KasB (standard error in brackets); < 3.47 on Mt-FabH; 4.17 in the data set with S. aureus FabH. Besides, the IC50 with Cg-FAS-I is recorded as 6.5 (0.2) µg/ml. Moreover, the “decrease in CFU” value with M. smegmatis (14 µg/ml platensimycin, 72 hours, LB broth) is 2 log. For the same compound, the “nature of the antibiotic effect (revival after washing and re-inoculation)” value in the data set with M. smegmatis (cells exposed for 72 hours) is on record as “bacteristatic”. In the data set on M. smegmatis mc^2155 [3] (20–40 µg/ml, [14C]acetate labelling), the “Biosynthesis of fatty acids and α- and epoxy-mycolic acids” value was “significantly inhibited”. Besides, in the data set on M. smegmatis mc^2155 [3] (lower concentrations, 10–20 µg/ml), the “α′-MAMEs level” value is “accumulation”. Also, the “synthesis of mycolate containing lipids GMM and TDM” value in the data set with M. smegmatis mc^2155 [3] (platensimycin-treated cultures, 20-40 µg/ml) is “reduced”. The “growth of cultures of C. glutamicum” value in the data set with C. glutamicum is “failed to inhibit growth”. The “antifungal activity against Candida albicans” value in the data set with Candida albicans is > 64 µg/mL. The “human FAS-I inhibition in vitro” value with human FAS-I was “inhibited”. The “rat FAS-I inhibition in vitro” value in the data set with rat FAS-I is on record as “inhibited”. In the data set on HeLa, the “IC50 of HeLa MTT” value was > 1000 µg/mL.
